The results in this text go back to patent US7612087B2, “Heterocyclic compounds as inhibitors of beta-lactamases” (Novexel, priority 2002, dated 2009).

The structures appear in SMILES notation. Structures can show the parent of a compound that is named as a salt.

One test concerns the target T1, β-lactamase TEM1 (Escherichia coli, UniProt P62593).
T1 construct: The β-lactamases are isolated from bacterial strains which are resistant to penicillins and cephalosporins; endogenous in cells; host or cells: E. coli 250HT21 (natural producer; French-press lysate, 100,000 g supernatant)
In words: Inhibition of isolated β-lactamase Tem-1 (Nitrocefin hydrolysis). The test is classed as biochemical, E.coli 250HT21. As to conditions: 100 μM Nitrocefin, 50 mM sodium phosphate buffer pH7.0, 37° C. The method, boiled down: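 TEM-1 from soluble extract of E. coli 250HT21, normalized enzyme, 100 μM Nitrocefin in 50 mM sodium phosphate pH 7.0 at 37 °C. Initial-rate hydrolysis read kinetically at 485 nm, with and without 5 min enzyme–inhibitor preincubation. CI50 from 6 or 8 concentrations in duplicate.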

In a further test the target is T2, β-lactamase P99 (Enterobacter cloacae, UniProt P05364).
T2 construct: The β-lactamases are isolated from bacterial strains which are resistant to penicillins and cephalosporins; endogenous in cells; host or cells: Enterobacter cloacae 293HT6 (natural producer; French-press lysate, 100,000 g supernatant)
In words: biochemical. The method, boiled down: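 P99 β-lactamase, taken from the soluble fraction of an Enterobacter cloacae 293HT6 lysate, was assayed at 37° C. in 50 mM sodium phosphate buffer pH7.0 with 100 μM Nitrocefin as the chromogenic substrate. Hydrolysis was followed kinetically at 485 nm at initial speed, with and without a 5 mn enzyme–inhibitor preincubation. Inhibitors were tested at 6 or 8 concentrations in duplicate, and IC50 was fitted with GraFit.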

The next test relates to E. coli 250CF1 (Tem3). In words: microbe, parasite or virus in culture. As to conditions: compound at 5 mg/l, 24 hours at 37° C.; for MIC of Piperacillin in combination with the compound: Trial 4, 250CF1 Tem3. The test is classed as cell-based. The essentials: (§1)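 Strains were seeded into liquid-medium dilutions of β-lactamine, each supplemented with a fixed 5 mg/l of test compound, and held 24 hours at 37° C in a heating chamber. Minimal inhibitory concentration was the level at which bacterial development was wholly absent.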

Test [1] concerns E. cloacae 293HT6 (Class C). In words: MIC, micro-dilution in liquid medium, β-lactamine with product at 5 mg/l. The test is classed as cell-based. As to conditions: compound at 5 mg/l, 24 hours at 37° C.; for MIC of Piperacillin in combination with the compound: Trial 9, 293HT6 Class. The method, boiled down: as §1
(In general: Dilution methods test growth across graded concentrations, often in twofold steps.)

The subject of another test is E. coli 250BE1 (SHV4). The test is described as above. It is filed as cell-based. As to conditions: compound at 5 mg/l, 24 hours at 37° C.; for MIC of Piperacillin in combination with the compound: Trial 7, 250BE1 SHV4. The essentials: as §1
Another test concerns E. coli 250HT21 (Tem1). The description is as above. The test is classed as cell-based. The conditions noted are these: compound at 5 mg/l, 24 hours at 37° C.; for MIC of Piperacillin in combination with the compound: Trial 2, 250HT21 Tem1. The method, boiled down: as §1
The test system of the next test is E. coli 250HT22 (Tem2). Described as above. It is filed as cell-based. As to conditions: compound at 5 mg/l, 24 hours at 37° C.; for MIC of Piperacillin in combination with the compound: Trial 3, 250HT22 Tem2. The method, boiled down: as §1
Test [2] relates to E. coli 250HT23 (Class D). The test is described as above. The test is classed as cell-based. As to conditions: compound at 5 mg/l, 24 hours at 37° C.; for MIC of Piperacillin in combination with the compound: Trial 8, 250HT23 Class D. The method, boiled down:
as §1

The next test concerns E. coli 250HT26 (SHV1). The test is described as above. The conditions noted are these: compound at 5 mg/l, 24 hours at 37° C.; for MIC of Piperacillin in combination with the compound: Trial 6, 250HT26 SHV1. It is filed as cell-based. The method, boiled down:
as §1

Another test deals with E. coli 250SJ1 (Tem7). The description is as above. The conditions noted are these: compound at 5 mg/l, 24 hours at 37° C.; for MIC of Piperacillin in combination with the compound: Trial 5, 250SJ1 Tem7. The test is classed as cell-based. The essentials: as §1
For test [3], the system named is P. aeruginosa 391HT7 (PSE). The description is as above. The test is classed as cell-based. As to conditions: compound at 5 mg/l, 24 hours at 37° C.; for MIC of Piperacillin in combination with the compound: Trial 11, 391HT7 PSE. The essentials: as §1
In test [4] the test system is P. aeruginosa 391HT8 (PSE). The test is described as above. As to conditions: compound at 5 mg/l, 24 hours at 37° C.; for MIC of Piperacillin in combination with the compound: Trial 12, 391HT8 PSE. It is filed as cell-based. The essentials:
as §1

The subject of test [5] is S. aureus 011GO66 (PeniR). The description is as above. It is filed as cell-based. As to conditions: compound at 5 mg/l, 24 hours at 37° C.; for MIC of Piperacillin in combination with the compound: Trial 1, 011GO66 peniR. The essentials: as §1
For the next test, the system named is Serratia 301HT6. The test is described as above. As to conditions: compound at 5 mg/l; Trial 10, 301HT6 Serratia; 24 hours at 37° C. It is filed as cell-based. The essentials:
as §1

T1 sequence (P62593 24-286 limits assumed): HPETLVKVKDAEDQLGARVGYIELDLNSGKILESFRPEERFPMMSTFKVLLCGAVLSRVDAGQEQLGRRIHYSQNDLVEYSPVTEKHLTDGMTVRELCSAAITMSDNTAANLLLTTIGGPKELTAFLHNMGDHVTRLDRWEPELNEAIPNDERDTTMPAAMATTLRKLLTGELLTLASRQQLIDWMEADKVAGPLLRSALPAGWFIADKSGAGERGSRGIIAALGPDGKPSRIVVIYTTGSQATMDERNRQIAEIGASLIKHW
T2 sequence (P05364 21-381): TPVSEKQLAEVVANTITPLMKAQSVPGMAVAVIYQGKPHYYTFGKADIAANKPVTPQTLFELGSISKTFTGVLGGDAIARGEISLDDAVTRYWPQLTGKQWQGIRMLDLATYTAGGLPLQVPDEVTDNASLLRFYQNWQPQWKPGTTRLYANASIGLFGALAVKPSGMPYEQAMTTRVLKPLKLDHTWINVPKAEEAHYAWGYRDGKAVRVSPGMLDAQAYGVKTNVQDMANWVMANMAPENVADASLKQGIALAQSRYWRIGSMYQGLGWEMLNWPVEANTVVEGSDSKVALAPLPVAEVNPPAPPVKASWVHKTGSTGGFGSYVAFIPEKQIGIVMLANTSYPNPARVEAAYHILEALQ

As a reminder, the IC50 is the concentration at which inhibition is half-maximal. A lower IC50 goes with greater potency in that assay. Consider `NC(=O)CNC(=O)C1CCC2CN1C(=O)N2OS(=O)(=O)O` (stereo not drawn) [Example 45, sodium salt of trans-N-(2-amino-2-oxoethyl)-7-oxo-6-(sulphooxy)-1,6-diazabicyclo[3.2.1]octane-2-carboxamide], for which the IC50 on β-lactamase TEM1 came out at 12 nM; at β-lactamase P99, 60 nM. Further, the “MIC of Piperacillin in combination with the compound” value (shortened to “MIC of Piperacillin in combination”) with E. coli 250CF1 (Tem3) was found to be 2.5 µg/mL; in test [1], 1.2 µg/mL; in the test on E. coli 250BE1 (SHV4), 5 µg/mL; in the test on E. coli 250HT21 (Tem1), 1.2 µg/mL; in the test on E. coli 250HT22 (Tem2), 2.5 µg/mL; in test [2] it was 10 µg/mL. For the same compound, the “MIC of Piperacillin in combination” value in the test on E. coli 250HT26 (SHV1) is 2.5 µg/mL; in the test with E. coli 250SJ1 (Tem7) it was 2.5 µg/mL; in test [3], over 40 µg/mL; in test [4] it was over 40 µg/mL; in [5], 1.2 µg/mL; in the test with Serratia 301HT6 it was 0.6 µg/mL.
On to `NC(=O)COC(=O)C1CCC2CN1C(=O)N2OS(=O)(=O)O` (stereo not drawn) [Example 48, sodium salt of trans 2-amino-2-oxoethyl 7-oxo-6-(sulphooxy)-1,6-diazabicyclo[3.2.1]octane-2-carboxylate], for which the IC50 amounted to 15 nM at β-lactamase TEM1 and 120 nM against β-lactamase P99. The “MIC of Cefotaxime in combination with the compound” value in the test with E. coli 250CF1 (Tem3) (Trial 4, 250CF1 E. coli Tem3) was “<=0.04 μg/ml”; in [1] (Trial 9, 293HT6 E. cloacae Class C), 0.15 µg/mL; with E. coli 250BE1 (SHV4) (Trial 7, 250BE1 E. coli SHV4), 0.08 µg/mL; with E. coli 250HT21 (Tem1) (Trial 2, 250HT21 E. coli Tem1), “<=0.04 μg/ml”; in the test on E. coli 250HT22 (Tem2) (Trial 3, 250HT22 E. coli Tem2), “<=0.04 μg/ml”; in test [2] (Trial 8, 250HT23 E. coli Class D), “<=0.04 μg/ml”. Further, the “MIC of Cefotaxime in combination with the compound” value with E. coli 250HT26 (SHV1) (Trial 6, 250HT26 E. coli SHV1) was “<=0.04 μg/ml”; with E. coli 250SJ1 (Tem7) (Trial 5, 250SJ1 E. coli Tem7), “<=0.04 μg/ml”; in test [3] (Trial 11, 391HT7 P. aeruginosa PSE) it was 40 µg/mL; in [4] (Trial 12, 391HT8 P. aeruginosa PSE) it was over 40 µg/mL; in test [5] (Trial 1, 011GO66 S. aureus PeniR), 2.5 µg/mL; with Serratia 301HT6, “<=0.04 μg/ml”. Besides, the “MIC of Piperacillin in combination” value with E. coli 250CF1 (Tem3) was 1.2 µg/mL; in test [1] it was 2.5 µg/mL; with E. coli 250BE1 (SHV4), 2.5 µg/mL; with E. coli 250HT21 (Tem1) it was 0.6 µg/mL; in the test with E. coli 250HT22 (Tem2), 2.5 µg/mL; in [2], 5 µg/mL. Also, the “MIC of Piperacillin in combination” value was 1.2 µg/mL with E. coli 250HT26 (SHV1); 1.2 µg/mL in the test on E. coli 250SJ1 (Tem7); over 40 µg/mL in test [3]; over 40 µg/mL in test [4]; 1.2 µg/mL in test [5]; 0.6 µg/mL in the test with Serratia 301HT6.
